The source of these data is publication PMC8292763, “Mechanism of BIP-4 mediated inhibition of InsP3Kinase-A” (Bioscience Reports, 2021).

For orientation: pKi means the negative decadic logarithm of the Ki, by convention in mol/L. As usually defined, the inhibition is the share of the control response that was lost under treatment.

Experiment [1] concerns the target T1, InsP3Kinase-A (Homo sapiens, UniProt P23677). Description: coupled PK/LDH assay with Lineweaver-Burk; thermal shift +[…] °C on wt. The class given is biochemical. More on the design: gene ITPKA; full-length, tag-less.
In experiment [2] the target is T2, InsP3Kinase-A (Homo sapiens, UniProt P23677, K264Q).
T2 construct: gene ITPKA; full-length
Description: activity of purified mutant with and without BIP-[…] to […]). The class given is biochemical.

The target of experiment [3] is T1, InsP3Kinase-A. Put plainly: biochemical. More on the design: gene ITPKA; full-length GST-InsP3Kinase-A. To be noted: ADP-Glo, 5 uM compound, normalized to positive control. The procedure: For the inhibitor screening, the compounds were diluted in dimethylsulfoxide (DMSO, Sigma), and a final compound concentration of 5 µM was applied to each well. Each measurement was performed in triplicates. As controls, a positive control (enzyme solution with InsP3Kinase and without compounds, but with DMSO), a negative control (enzyme buffer without InsP3Kinase), and an inhibitor control (quercetin and BIP-4) were applied. In each well, there was a final buffer concentration of 20 mM HEPES pH 7.5, 5 mM MgCl2, 30 mM KCl, 1 mM DTT, 0.5 mM ATP, and an enzyme concentration between 20 nM and 55 nM was applied. […] Then, 10 µl of ADP-Glo reagent was added (depleting remaining ATP and stopping InsP3Kinase enzymatic reaction) and incubated for 20 min at room temperature (RT). […] For luminescent measurement, a TECAN infinite 200 plate reader was used with an integration time of 1000 ms at a temperature of 30°C. For this screen, all measurements were performed in triplicates, three-times using the ADP Glo assay.

Experiment [4] addresses T1, InsP3Kinase-A. Description: biochemical. More on the design: gene ITPKA; full-length GST-InsP3Kinase-A. Particulars: ADP-Glo, 5 uM compound, normalized to positive control. This is another data set of the same source.
Description: For the inhibitor screening, the compounds were diluted in dimethylsulfoxide (DMSO, Sigma), and a final compound concentration of 5 µM was applied to each well. Each measurement was performed in triplicates. […] In each well, there was a final buffer concentration of 20 mM HEPES pH 7.5, 5 mM MgCl2, 30 mM KCl, 1 mM DTT, 0.5 mM ATP, and an enzyme concentration between 20 nM and 55 nM was applied. […] Then, 10 µl of ADP-Glo reagent was added (depleting remaining ATP and stopping InsP3Kinase enzymatic reaction) and incubated for 20 min at room temperature (RT). Next, 10 µl kinase detection reagent (converting remaining ADP to ATP and containing luciferase, which uses ATP as substrate) was added, and incubation was continued for 15 min at RT. For luminescent measurement, a TECAN infinite 200 plate reader was used with an integration time of 1000 ms at a temperature of 30°C. For this screen, all measurements were performed in triplicates, three-times using the ADP Glo assay.

pKi: −log10 of the molar value.

T1 sequence (P23677 whole entry): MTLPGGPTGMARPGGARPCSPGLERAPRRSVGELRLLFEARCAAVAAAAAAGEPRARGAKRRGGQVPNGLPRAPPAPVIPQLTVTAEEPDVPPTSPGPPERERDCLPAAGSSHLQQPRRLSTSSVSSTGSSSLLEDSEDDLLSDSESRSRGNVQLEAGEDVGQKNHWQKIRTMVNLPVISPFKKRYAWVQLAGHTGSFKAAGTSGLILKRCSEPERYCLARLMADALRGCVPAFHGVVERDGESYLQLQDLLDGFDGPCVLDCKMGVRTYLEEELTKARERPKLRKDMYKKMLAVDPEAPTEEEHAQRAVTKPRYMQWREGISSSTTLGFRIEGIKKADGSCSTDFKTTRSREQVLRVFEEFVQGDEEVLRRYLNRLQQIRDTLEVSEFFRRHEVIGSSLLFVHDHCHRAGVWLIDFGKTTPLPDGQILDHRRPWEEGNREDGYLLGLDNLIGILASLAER
T2 sequence (P23677 whole entry K264Q): as the sequence (P23677 whole entry) above, with K264Q counted along it

As for `Cc1nn(-c2ccc([N+](=O)[O-])cc2)c(C)c1N1C(=O)c2cc([N+](=O)[O-])cc3cc([N+](=O)[O-])cc(c23)C1=O` [BIP-4, 2-[3,5-dimethyl-1-(4-nitrophenyl)-1H-pyrazol-4-yl]-5,8-dinitro-1H-benzo[de]isoquinoline-1,3(2H)-dione], the pKi in experiment [1] was 6.36. The “Enzyme activity + BIP4 in %” value in experiment [2] was 18.797 % enzyme activity with BIP-4.

For the molecule `CNS(=O)(=O)c1ccc(N2C(=O)c3cc([N+](=O)[O-])cc4cc([N+](=O)[O-])cc(c34)C2=O)cc1` [compound 31, 31], the inhibition at 5 µM in experiment [3] came to 33.4%.

In the case of `CCOc1ccc(N2C(=O)c3cc([N+](=O)[O-])cc4cc([N+](=O)[O-])cc(c34)C2=O)cc1` [compound 27, 27], the inhibition at 5 µM in experiment [3] came out at 31.4%.

In experiment [3], `Cc1ccc(N2C(=O)c3cc([N+](=O)[O-])cc4cc([N+](=O)[O-])cc(c34)C2=O)c(C)c1` [compound 19, 19] showed an inhibition at 5 µM of 36.2%.

Molecule `O=C1c2cc([N+](=O)[O-])cc3cc([N+](=O)[O-])cc(c23)C(=O)N1c1ccc(Br)cn1` [compound 78, 78] registered an inhibition at 5 µM in experiment [4] of 1.6%.

For `O=C1c2cc([N+](=O)[O-])cc3cc([N+](=O)[O-])cc(c23)C(=O)N1c1ccccc1Cl` [compound 28, 28], the inhibition at 5 µM in experiment [3] was 19.7%.

In turn, `CCN(CC)S(=O)(=O)c1ccc(N2C(=O)c3cc([N+](=O)[O-])cc4cc([N+](=O)[O-])cc(c34)C2=O)cc1` [compound 33, 33] had an inhibition at 5 µM in experiment [3] of 41.6%.
